Data reported in article PMC3969223, “Characterization of WZ4003 and HTH-01-015 as selective inhibitors of the LKB1-tumour-suppressor-activated NUAK kinases” (Biochemical Journal, 2013).

Key:
[1] = test system: ACC Ser79 phosphorylation; test: ACC Ser79 phosphorylation on EDTA-induced detachment, HEK-293; format: cell-based, human; settings: HEK-293, 16 h
Method: HEK (human embryonic kidney)-293 and U2OS cells were cultured in DMEM (Dulbecco's modified Eagle's medium) supplemented with 10% FBS, 2 mM glutamine and 1×antibacterial/antimycotic solution. NUAK1^+/+ and NUAK1^−/− MEFs were cultured in DMEM supplemented with 10% (v/v) FBS and 2 mM glutamine, 1×antibacterial/antimycotic solution, 1% (v/v) non-essential amino acids and 1% (v/v) sodium pyruvate. HEK-293 Flp/In T-Rex cell lines were cultured in DMEM supplemented with 10% (v/v) FBS and 2 mM glutamine, 1×antibacterial/antimycotic solution, 100 μg/ml hygromycin and 15 μg/ml blasticidin. Supplementing the culture medium with 0.1 μg/ml doxycycline for 16–24 h induced protein expression in the HEK-293 Flp/In T-Rex cells. Cell counting was carried out using Invitrogen Countess following the manufacturer's protocol. A cell-detachment assay was carried out on HEK-293 cells using PBS-EDTA-based cell dissociation buffer as described previously. An inhibitor dose-dependence assay was carried out by treating the cells with various concentrations of the inhibitors as indicated in the Figure legends. The inhibitors were dissolved in DMSO and the total concentration of DMSO in the culture media never exceeded 1%. Transient transfections of HEK-293 cells were carried out using PEI [24]. Stable transfections were carried out in HEK-293 Flp/In T-Rex cells (Invitrogen) following the manufacturer's protocol. […]

[2] = test system: MYPT1 phosphorylation; test: MYPT1 phosphorylation on detachment, MEFs; format: cell-based, mouse; settings: 10 μM, 16 h
Method: Figure 7 NUAK1 inhibition suppresses cell proliferation (A) U2OS cells were incubated with or without 10 μM WZ4003 or 10 μM HTH-01-015 and a cell proliferation assay was carried out over 5 days in triplicate using the CellTiter 96® AQueous Non-Radioactive Cell Proliferation Assay kit (Promega) (as described in the Materials and methods section). U2OS cells in which NUAK1 has been knocked-down using two different shRNA hairpins were used in parallel as controls. The efficiency of the knock down of each shRNA is shown in top panel. SCR, control scrambled shRNA hairpin; shNUAK1 (1), first NUAK1 shRNA hairpin; shNUAK1 (2), second NUAK1 shRNA hairpin. (B) U2OS cells were treated with (+) or without (−) 10 μM WZ4003 or 10 μM HTH-01-015. After 16 h cell media was removed and cells were treated with EDTA-PBS-based cell dissociation buffer supplemented with 10 μM WZ4003, 10 μM HTH-01–015 or DMSO for 20 min. Cell detachment was induced with gentle tapping of the plates followed by gentle centrifugation at 70 g for 3 min. Cells were lysed immediately after removal of the media and immunoblotted for the detection of the indicated antibodies. (C and D) As above, except NUAK1^+/+ and NUAK1^−/− MEFs were used. Similar results were obtained in three separate experiments.

[3] = molecular target: ERK1 (Homo sapiens, UniProt P27361); test: Kinase profiling; format: biochemical; settings: 0.1 or 1 μM inhibitor; mean of triplicate
How it was run: (§1)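 Read-out: % residual kinase activity vs DMSO control; mean of triplicates ±S.D. Inhibitor tested at 0.1 or 1 μM in vitro across a 140-kinase panel.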

[4] = molecular target: PAK4 (Homo sapiens, UniProt O96013); test: Kinase profiling; format: biochemical; settings: 0.1 or 1 μM inhibitor; mean of triplicate
[5] = molecular target: IRAK1 (Homo sapiens, UniProt P51617); test: Kinase profiling; format: biochemical; settings: 0.1 or 1 μM inhibitor; mean of triplicate
How it was run: as §1

[6] = molecular target: JNK1 (Homo sapiens, UniProt P45983); test: Kinase profiling; format: biochemical; settings: 0.1 or 1 μM inhibitor; mean of triplicate
[7] = molecular target: EPH-B4 (Homo sapiens, UniProt P54760); test: Kinase profiling; format: biochemical; settings: 0.1 or 1 μM inhibitor; mean of triplicate
[8] = molecular target: SmMLCK (Homo sapiens, UniProt Q15746); test: Kinase profiling; format: biochemical; settings: 0.1 or 1 μM inhibitor; mean of triplicate
How it was run: as §1

[9] = molecular target: CK1δ (Homo sapiens, UniProt P48730); test: Kinase profiling; format: biochemical; settings: 0.1 or 1 μM inhibitor; mean of triplicate
How it was run: as §1

[10] = molecular target: MARK4 (Homo sapiens, UniProt Q96L34); test: Kinase profiling; format: biochemical; settings: 0.1 or 1 μM inhibitor; mean of triplicate
[11] = molecular target: p38α MAPK (Homo sapiens, UniProt Q16539); test: Kinase profiling; format: biochemical; settings: 0.1 or 1 μM inhibitor; mean of triplicate
How it was run: as §1

[12] = molecular target: BRSK2 (Homo sapiens, UniProt Q8IWQ3); test: Kinase profiling; format: biochemical; settings: 0.1 or 1 μM inhibitor; mean of triplicate
How it was run: as §1

[13] = molecular target: PINK (Tribolium castaneum, UniProt D6WMX4); test: Kinase profiling; format: biochemical, insect; settings: 0.1 or 1 μM inhibitor; mean of triplicate
Method: Kinase inhibitor specificity profiling assays were carried out at The International Centre for Protein Kinase Profiling (http://www.kinase-screen.mrc.ac.uk/) against a panel of 140 protein kinases as described previously. Results are presented as a percentage of kinase activity in DMSO control reactions. Protein kinases were assayed in vitro with 0.1 or 1 μM of the inhibitors and the results are presented as an average of triplicate reactions±S.D. or in the form of comparative histograms.

Sequence of ERK1 (P27361 whole entry): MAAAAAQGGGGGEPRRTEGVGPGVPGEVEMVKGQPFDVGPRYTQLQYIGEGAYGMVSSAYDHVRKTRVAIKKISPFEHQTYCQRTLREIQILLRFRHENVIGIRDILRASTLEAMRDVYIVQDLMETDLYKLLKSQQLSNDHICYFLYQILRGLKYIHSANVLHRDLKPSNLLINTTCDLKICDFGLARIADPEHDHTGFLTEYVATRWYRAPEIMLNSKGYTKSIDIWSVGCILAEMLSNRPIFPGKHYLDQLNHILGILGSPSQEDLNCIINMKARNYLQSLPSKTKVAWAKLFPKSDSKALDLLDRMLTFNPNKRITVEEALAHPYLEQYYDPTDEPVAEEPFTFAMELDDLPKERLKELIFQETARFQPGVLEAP
Sequence of EPH-B4 (P54760 16-987): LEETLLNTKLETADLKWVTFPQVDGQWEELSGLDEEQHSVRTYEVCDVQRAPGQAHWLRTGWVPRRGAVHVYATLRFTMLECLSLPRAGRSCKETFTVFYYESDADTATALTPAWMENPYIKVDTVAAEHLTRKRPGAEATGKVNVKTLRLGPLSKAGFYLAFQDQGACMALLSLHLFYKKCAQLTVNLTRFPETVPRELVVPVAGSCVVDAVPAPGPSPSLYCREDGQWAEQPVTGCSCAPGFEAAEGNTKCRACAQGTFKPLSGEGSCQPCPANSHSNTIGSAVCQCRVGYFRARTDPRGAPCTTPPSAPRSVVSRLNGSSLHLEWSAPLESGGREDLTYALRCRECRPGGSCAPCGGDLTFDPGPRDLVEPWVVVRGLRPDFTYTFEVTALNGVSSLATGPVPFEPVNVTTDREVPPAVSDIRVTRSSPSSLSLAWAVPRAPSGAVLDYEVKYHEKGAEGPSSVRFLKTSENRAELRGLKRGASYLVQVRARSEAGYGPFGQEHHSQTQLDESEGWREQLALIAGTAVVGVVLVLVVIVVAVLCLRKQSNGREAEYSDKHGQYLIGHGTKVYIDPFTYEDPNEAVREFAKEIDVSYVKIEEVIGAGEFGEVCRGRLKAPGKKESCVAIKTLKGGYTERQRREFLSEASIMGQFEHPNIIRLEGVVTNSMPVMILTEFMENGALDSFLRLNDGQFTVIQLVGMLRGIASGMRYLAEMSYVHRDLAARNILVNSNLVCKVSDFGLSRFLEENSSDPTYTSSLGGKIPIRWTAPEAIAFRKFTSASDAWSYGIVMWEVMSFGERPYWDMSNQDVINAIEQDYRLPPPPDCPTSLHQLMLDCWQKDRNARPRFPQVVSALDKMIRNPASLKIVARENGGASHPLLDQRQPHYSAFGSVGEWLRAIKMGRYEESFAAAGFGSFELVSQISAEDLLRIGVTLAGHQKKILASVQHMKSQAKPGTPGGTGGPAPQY
Sequence of p38α MAPK (Q16539 whole entry): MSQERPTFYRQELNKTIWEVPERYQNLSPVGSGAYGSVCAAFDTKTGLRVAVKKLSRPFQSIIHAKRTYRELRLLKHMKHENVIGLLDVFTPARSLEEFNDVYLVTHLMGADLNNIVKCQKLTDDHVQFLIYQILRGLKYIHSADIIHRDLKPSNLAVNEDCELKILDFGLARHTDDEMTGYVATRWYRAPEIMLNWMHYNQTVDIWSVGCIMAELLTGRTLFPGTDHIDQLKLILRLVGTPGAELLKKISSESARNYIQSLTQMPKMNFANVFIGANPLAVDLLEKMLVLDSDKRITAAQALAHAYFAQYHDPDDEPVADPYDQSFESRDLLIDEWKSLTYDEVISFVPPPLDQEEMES
Sequence of MARK4 (Q96L34 whole entry): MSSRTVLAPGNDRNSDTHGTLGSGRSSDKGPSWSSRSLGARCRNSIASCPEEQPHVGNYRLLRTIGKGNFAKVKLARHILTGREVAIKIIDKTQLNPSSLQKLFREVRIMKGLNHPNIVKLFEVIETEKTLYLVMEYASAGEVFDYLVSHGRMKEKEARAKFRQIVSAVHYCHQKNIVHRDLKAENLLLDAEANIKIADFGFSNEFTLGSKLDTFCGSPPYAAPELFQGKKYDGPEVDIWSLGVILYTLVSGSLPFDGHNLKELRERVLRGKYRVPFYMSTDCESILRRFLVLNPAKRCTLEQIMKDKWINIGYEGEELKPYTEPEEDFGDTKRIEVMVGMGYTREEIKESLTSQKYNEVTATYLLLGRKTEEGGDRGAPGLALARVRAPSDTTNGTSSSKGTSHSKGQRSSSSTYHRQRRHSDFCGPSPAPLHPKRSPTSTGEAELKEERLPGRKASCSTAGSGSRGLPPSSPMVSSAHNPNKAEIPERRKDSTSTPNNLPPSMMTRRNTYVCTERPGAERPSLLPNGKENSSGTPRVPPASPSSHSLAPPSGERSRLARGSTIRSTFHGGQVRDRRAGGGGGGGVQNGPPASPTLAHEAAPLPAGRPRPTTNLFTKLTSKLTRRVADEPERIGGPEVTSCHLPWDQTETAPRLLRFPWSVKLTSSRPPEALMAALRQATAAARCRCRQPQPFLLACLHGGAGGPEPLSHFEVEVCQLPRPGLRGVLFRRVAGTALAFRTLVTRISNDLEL
Sequence of JNK1 (P45983 whole entry): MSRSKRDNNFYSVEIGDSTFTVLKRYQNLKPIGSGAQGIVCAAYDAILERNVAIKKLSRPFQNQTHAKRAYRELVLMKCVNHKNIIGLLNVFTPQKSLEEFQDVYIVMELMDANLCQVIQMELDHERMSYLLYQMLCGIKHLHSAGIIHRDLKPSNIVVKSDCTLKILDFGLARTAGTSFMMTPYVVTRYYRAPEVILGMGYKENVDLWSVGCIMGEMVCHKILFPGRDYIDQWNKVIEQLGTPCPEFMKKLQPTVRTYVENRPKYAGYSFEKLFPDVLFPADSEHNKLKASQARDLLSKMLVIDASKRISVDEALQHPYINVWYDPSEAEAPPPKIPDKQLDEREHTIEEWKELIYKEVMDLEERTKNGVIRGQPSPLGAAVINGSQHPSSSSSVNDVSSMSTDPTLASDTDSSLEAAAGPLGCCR
Sequence of IRAK1 (P51617 whole entry): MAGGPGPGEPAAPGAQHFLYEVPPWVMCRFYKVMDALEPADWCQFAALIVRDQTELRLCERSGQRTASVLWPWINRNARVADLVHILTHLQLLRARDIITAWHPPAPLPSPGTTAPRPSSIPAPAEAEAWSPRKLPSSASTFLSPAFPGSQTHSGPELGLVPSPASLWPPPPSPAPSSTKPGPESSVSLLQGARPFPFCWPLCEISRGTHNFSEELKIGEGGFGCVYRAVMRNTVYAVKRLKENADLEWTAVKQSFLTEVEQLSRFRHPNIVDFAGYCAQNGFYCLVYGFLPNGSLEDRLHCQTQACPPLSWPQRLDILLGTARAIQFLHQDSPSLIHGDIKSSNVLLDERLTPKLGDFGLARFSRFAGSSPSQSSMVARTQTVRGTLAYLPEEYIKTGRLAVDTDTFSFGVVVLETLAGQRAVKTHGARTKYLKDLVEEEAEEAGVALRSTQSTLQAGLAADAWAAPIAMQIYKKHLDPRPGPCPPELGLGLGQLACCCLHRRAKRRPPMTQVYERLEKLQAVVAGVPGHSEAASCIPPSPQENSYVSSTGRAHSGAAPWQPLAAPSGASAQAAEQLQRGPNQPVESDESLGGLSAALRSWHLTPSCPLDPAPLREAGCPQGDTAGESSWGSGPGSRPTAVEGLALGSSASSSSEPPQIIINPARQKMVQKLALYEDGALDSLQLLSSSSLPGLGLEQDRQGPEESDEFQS
Sequence of BRSK2 (Q8IWQ3 whole entry): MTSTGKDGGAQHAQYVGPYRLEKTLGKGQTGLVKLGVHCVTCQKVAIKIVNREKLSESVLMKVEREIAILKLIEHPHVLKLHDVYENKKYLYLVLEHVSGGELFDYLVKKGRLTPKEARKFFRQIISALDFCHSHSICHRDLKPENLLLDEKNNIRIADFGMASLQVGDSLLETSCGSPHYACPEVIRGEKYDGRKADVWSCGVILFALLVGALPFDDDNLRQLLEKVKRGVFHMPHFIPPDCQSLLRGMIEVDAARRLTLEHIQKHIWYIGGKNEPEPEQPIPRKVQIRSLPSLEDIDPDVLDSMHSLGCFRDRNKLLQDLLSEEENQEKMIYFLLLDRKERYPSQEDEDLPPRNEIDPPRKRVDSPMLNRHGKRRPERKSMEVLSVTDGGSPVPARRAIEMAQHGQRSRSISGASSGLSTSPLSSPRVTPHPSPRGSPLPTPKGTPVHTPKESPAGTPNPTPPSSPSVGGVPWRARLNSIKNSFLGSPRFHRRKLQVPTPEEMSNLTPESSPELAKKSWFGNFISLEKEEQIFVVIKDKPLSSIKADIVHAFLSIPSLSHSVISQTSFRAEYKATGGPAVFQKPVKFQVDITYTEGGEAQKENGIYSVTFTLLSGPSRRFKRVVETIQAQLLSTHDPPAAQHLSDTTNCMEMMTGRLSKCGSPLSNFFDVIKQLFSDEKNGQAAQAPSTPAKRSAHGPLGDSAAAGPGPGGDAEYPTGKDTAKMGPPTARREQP
Sequence of CK1δ (P48730 whole entry): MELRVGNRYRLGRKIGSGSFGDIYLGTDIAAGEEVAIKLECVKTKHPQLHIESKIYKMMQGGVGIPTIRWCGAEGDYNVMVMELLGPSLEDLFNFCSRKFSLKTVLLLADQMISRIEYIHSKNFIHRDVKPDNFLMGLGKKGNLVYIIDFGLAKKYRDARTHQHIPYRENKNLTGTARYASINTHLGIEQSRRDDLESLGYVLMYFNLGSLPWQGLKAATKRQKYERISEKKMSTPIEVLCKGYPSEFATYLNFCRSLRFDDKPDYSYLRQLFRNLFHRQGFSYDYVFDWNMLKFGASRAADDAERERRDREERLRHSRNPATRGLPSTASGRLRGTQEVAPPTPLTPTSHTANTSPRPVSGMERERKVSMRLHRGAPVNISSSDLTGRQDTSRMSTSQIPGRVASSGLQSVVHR

Structure (SMILES)	Inhibition of ACC Ser79 phosphorylation induced by cell detachment (in words) [1]	Suppression of MYPT1 phosphorylation in MEFs (in words) [2]	ERK1 activity, percentage of DMSO control [3] [percentage]	PAK4 activity, percentage of DMSO control [4] [percentage]	IRAK1 activity, percentage of DMSO control [5] [percentage]	JNK1 activity, percentage of DMSO control [6] [percentage]	EPH-B4 activity, percentage of DMSO control [7] [percentage]	SmMLCK activity, percentage of DMSO control [8] [percentage]	CK1δ activity, percentage of DMSO control [9] [percentage]	MARK4 activity, percentage of DMSO control [10] [percentage]	p38α MAPK activity, percentage of DMSO control [11] [percentage]	BRSK2 activity, percentage of DMSO control [12] [percentage]	PINK activity, percentage of DMSO control [13] [percentage]
Cc1nc(Nc2cnn(C3CCNCC3)c2)nc2c1N(C)C(=O)c1cc3ccccc3cc1N2C [HTH-01-015]	neither compound inhibited	to the same extent as NUAK1-knockout	83	110	103	100	102	77	94	75	118	97	99
CCC(=O)Nc1cccc(Oc2nc(Nc3ccc(N4CCN(C)CC4)cc3OC)ncc2Cl)c1 [WZ4003]	neither compound inhibited	to the same extent as NUAK1-knockout	–	–	–	–	–	–	–	–	–	–	–
